For test [1], the target named is Dual specificity protein kinase CLK2 (Homo sapiens, UniProt P49760). In words: Inhibition of recombinant CLK2 (unknown origin) using Ser/Thr 6 peptide as substrate incubated for 1 hr in presence of ATP by FRET assay.
Test [2] has as its target Dual specificity protein kinase CLK3 (Homo sapiens, UniProt P49761). Kind of test: Inhibition of recombinant CLK3 (unknown origin) using Ser/Thr 18 peptide as substrate incubated for 1 hr in presence of ATP by FRET assay.
The nature of test [3]: Inhibition of IL1-beta induced MMP3 expression levels in human chondrocytes assessed as MMP3 levels incubated for 2hrs followed by IL1-beta stimulation and measured after overnight incubation by LANCE assay. The class given is functional, cell-based. Particulars: Chondrocyte. A general note: In TR-FRET formats the signal depends on donor and acceptor labels being close together.

Test [4] is described as follows: Inhibition of IL1-beta induced MMP3 expression levels in human chondrocytes assessed as MMP3 levels incubated for 2hrs followed by IL1-beta stimulation and measured after overnight incubation by LANCE assay relative to control. The test is classed as functional, Chondrocyte.
The nature of test [5]: Effect on Wnt signaling pathway in human SW480 cells harbouring TCF/LEF luciferase reporter gene and SP5-Luc reporter gene incubated for 36 to 48 hrs by luminescence assay. The test is classed as cell-based.
Test [6] addresses Dual specificity tyrosine-phosphorylation-regulated kinase 1A (Homo sapiens, UniProt Q13627). Kind of test: Inhibition of recombinant DYRK1A (unknown origin) using Ser/Thr 18 peptide as substrate incubated for 1 hr in presence of ATP by FRET assay.
Test [7] in a line: Induction of chondrogenesis in human MSC assessed as maximum activity at 100 nM incubated for 6 days by rhodamine B and Nile red staining based imaging analysis relative to control. The class given is functional. The note with it: BMMSC, 144 h, time 6 day.
Test [8] can be described thus: Induction of chondrogenesis in human MSC assessed as incubated for 6 days by rhodamine B and Nile red staining based imaging analysis. The test is classed as functional. Particulars: bmmsc.
The nature of test [9]: Induction of chondrogenesis in human MSC assessed as maximum activity at 30 nM incubated for 6 days by rhodamine B and Nile red staining based imaging analysis relative to control. The note with it: BMMSC, 144 h, time 6 day. The class given is functional.
Test [10] in a line: Induction of chondrogenesis in human MSC assessed as maximum activity at 300 nM incubated for 6 days by rhodamine B and Nile red staining based imaging analysis relative to control. The test is classed as functional. Particulars: BMMSC, 144 h, time 6 day.
A short description of test [11]: Induction of chondrogenesis in human MSC assessed as maximum activity at 10 nM incubated for 6 days by rhodamine B and Nile red staining based imaging analysis relative to control. The note with it: BMMSC, 144 h, time 6 day. The test is classed as functional.
The subject of test [12] is Chondrocyte. In words: Inhibition of IL1-beta induced MMP3 expression levels in human chondrocytes assessed as MMP3 levels incubated for 2hrs followed by IL1-beta stimulation and measured after 24 hrs by qRT-PCR analysis. The test is classed as functional. The note with it: time 26.0 hrs.
Test [13] can be described thus: Induction of chondrogenesis in human MSC assessed as maximum activity at 2700 nM incubated for 6 days by rhodamine B and Nile red staining based imaging analysis relative to control. The test is classed as functional. Particulars: BMMSC, 144 h, time 6 day.

Active and inactive are the calls of the source. The rule behind the calls is not given here. A value given as a limit tells only on which side of the number the result lay.

Chain of Dual specificity protein kinase CLK2 (P49760 whole entry): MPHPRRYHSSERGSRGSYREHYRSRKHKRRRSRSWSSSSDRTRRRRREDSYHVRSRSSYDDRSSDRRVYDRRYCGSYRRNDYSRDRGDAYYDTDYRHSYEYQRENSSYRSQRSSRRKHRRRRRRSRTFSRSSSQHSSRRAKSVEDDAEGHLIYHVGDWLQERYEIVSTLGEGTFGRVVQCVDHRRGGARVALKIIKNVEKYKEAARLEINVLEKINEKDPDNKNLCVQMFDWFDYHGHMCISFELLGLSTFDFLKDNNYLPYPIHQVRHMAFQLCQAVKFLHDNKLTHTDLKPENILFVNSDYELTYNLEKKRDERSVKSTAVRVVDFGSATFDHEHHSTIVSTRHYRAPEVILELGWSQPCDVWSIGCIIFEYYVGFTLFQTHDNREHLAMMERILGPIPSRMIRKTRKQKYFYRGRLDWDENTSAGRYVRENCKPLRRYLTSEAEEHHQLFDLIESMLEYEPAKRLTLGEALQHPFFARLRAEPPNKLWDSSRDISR
Chain of Dual specificity protein kinase CLK3 (P49761 whole entry): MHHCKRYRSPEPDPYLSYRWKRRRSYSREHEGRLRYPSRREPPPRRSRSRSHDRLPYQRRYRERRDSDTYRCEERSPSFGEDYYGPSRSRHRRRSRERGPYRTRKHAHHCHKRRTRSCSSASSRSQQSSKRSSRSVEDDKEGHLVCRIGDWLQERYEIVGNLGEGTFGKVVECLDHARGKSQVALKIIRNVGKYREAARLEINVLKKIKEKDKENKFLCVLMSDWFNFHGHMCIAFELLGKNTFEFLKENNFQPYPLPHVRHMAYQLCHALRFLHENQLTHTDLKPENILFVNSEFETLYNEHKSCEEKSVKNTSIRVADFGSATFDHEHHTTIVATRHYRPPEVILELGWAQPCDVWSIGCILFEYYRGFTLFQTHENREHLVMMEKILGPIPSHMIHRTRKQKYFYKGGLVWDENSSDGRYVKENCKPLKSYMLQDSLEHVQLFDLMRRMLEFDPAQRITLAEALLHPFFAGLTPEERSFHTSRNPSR

Consider `CN1CCN(c2cc(CC(=O)Nc3cc4cc(-c5cnn(C)c5)ccc4cn3)ccn2)CC1`, for which the EC50 in test [1] amounted to 10 nM; in [2], 78 nM; in test [3], 1060 nM. For the same compound, the Imax in test [4] amounted to 100%.

As for `Cn1cc(-c2ccc3cnc(NC(=O)c4cnc5ccccc5c4)cc3c2)cn1`, the EC50 in test [1] worked out at 4 nM; in [2], 66 nM; in [3], 19.1 nM. In addition, the Imax in test [4] stood at 41.2%.

`Cc1n[nH]c2ccc(-c3cncc(O[C@H]4CCNC[C@@H]4F)n3)cc12`: the EC50 is 672 nM in test [5]; 11 nM in test [6]; 1 nM in test [1]; 1720 nM in test [2]; 100 nM in [8]. For the same compound, the Emax at 0.1 µM in test [7] was determined as 44.9%.

For `Cc1n[nH]c2ccc(-c3cncc(O[C@H]4CCNC[C@H]4F)n3)cc12`, the Emax at 0.03 µM in test [9] is 54.2%. Besides, the EC50 is 834 nM in test [5]; 21 nM in test [6]; 5 nM in test [1]; 1760 nM in test [2]; 30 nM in [8].

In the case of `CN1CCN(c2nccc3[nH]c(-c4n[nH]c5ncc(-c6cncc(CN7CCCCC7)c6)cc45)cc23)CC1`, the Emax at 0.3 µM in [10] was 50.7%. Moreover, the EC50 in test [5] is more than 10000 nM; in test [6], 11 nM; in test [1], 9 nM; in test [2], 1900 nM.

`CCCC(=O)Nc1cncc(-c2cc3c(-c4nc5c(-c6ccsc6)cncc5[nH]4)n[nH]c3cn2)c1`: in test [9], the Emax at 0.03 µM was found to be 42%. In addition, the EC50 came out at 61.5 nM in test [5], 8 nM in [6], 3 nM in test [1] and 21 nM in test [2].

As for `O=C(Nc1cc2cc(-c3cnco3)cnc2cn1)C1CCNCC1`, the EC50 in [5] was more than 10000 nM; in test [6], 40 nM; in [1], more than 10000 nM; in test [2], more than 10000 nM; in test [3], 35.8 nM.

As for `O=C(CC1CCNCC1)Nc1cncc(-c2cnc3[nH]nc(-c4cc5c(-c6ccncc6)ccnc5[nH]4)c3c2)c1`, the Emax at 0.03 µM in test [9] amounted to 26.7%. In addition, the EC50 in [5] was more than 10000 nM; in [6], 21 nM; in test [1], 11 nM; in test [2], more than 10000 nM.

`Cc1n[nH]c2ccc(-c3cncc(NC4CCNCC4)n3)cc12`: the EC50 in test [5] came to 256 nM; in test [6] it was 9 nM; in test [1] it was 1 nM; in [2], 1420 nM; in test [3], 1050 nM.

In the case of `Cc1n[nH]c2ccc(-c3cncc(O[C@H]4CCNCC4(F)F)n3)cc12`, in test [10], the Emax at 0.3 µM was determined as 82.1%. The EC50 in [5] was 227 nM; in test [6], 2 nM; in [1], 3 nM; in test [2], 313 nM; in test [8], 300 nM.

For the compound `CN1CCN(c2ccc(NC(=O)c3n[nH]c4ccc(-c5cncc(NC(=O)c6c(F)cccc6F)c5)cc34)cn2)CC1`, the EC50 in test [5] came to 226 nM; in test [6], 3 nM; in test [1], 1 nM; in test [2], 81 nM; in [3], 3000 nM. In addition, in [4], the Imax was found to be 54.9%.

Regarding `Oc1cncc(-c2ccc3[nH]nc(-c4nc5c(-c6cccc(F)c6)ccnc5[nH]4)c3c2)c1`, the EC50 in test [5] is 11 nM; in test [6], 12 nM; in [1] it was 17 nM; in test [2], 45 nM. Besides, the Emax at 0.1 µM in [7] is 52.2%.

For the compound `CN1CCC(C(=O)Nc2cc3cc(-c4cnsc4)cnc3cn2)CC1`, the EC50 was more than 10000 nM in [5], more than 10000 nM in test [1], more than 10000 nM in test [2] and 3000 nM in test [3].

`CN(C)Cc1cncc(-c2cnc3[nH]nc(-c4cc5c(-c6cccc(F)c6)nccc5[nH]4)c3c2)c1`: in test [11], the Emax at 0.01 µM is 110%. Moreover, the EC50 stood at 1170 nM in test [5]; 91 nM in [6]; 4 nM in test [1]; 74 nM in [2]; 10 nM in test [8].

Turning to `NC1CN(c2cncc(-c3ccc4[nH]nc(-c5nc6ccncc6[nH]5)c4c3)n2)C1`, the EC50 in test [5] was determined as 344 nM; in [6] it was 3 nM; in [1] it was 1 nM; in test [2] it was 182 nM; in test [3], 20.8 nM. The Imax in [4] was found to be 61.5%.

On to `Cc1ccc(C(=O)Nc2c[nH]nc2C(=O)Nc2ccc(OCCN3CCCC3)nc2)cn1`, for which the EC50 is 119 nM in test [5]; 27 nM in [6]; 24 nM in [1]; 3700 nM in test [2]; 811 nM in test [3]. For the same compound, the Imax in test [4] is 23.7%.

Consider `CN1CCC(Oc2ccc(C(=O)Nc3cc4cc(-c5cnn(C)c5)ccc4cn3)cc2)CC1`, for which the Emax at 0.01 µM in test [11] amounted to 25.4%. For the same compound, in [12], the result was inactive. The EC50 in test [3] was 3000 nM.

Consider `Fc1cccc(-c2cncc3[nH]c(-c4n[nH]c5ncc(-c6cccnc6)cc45)nc23)c1`, for which the Emax at 0.3 µM in test [10] turned out to be 157%. Besides, the EC50 is 6 nM in test [5]; 12 nM in test [6]; 5 nM in test [1]; 48 nM in test [2]; 100 nM in test [8].

As to `CN1CCN(c2ccc(C(=O)N3CCN(c4cc(C(=O)Nc5cc6cc(-c7cnn(C)c7)ccc6cn5)ccn4)CC3)cn2)CC1`, the results for the EC50 in [1] and in [3] were 3 nM and 304 nM, respectively.

In the case of `CC(C)N1CCC(Oc2cc(C(=O)Nc3cc4cc(-c5cnn6c5CCNC6)ccc4cn3)ccn2)CC1`, the EC50 in test [6] came to 11 nM; in test [3], 75.8 nM. For the same compound, the result in [12] was inactive.

Regarding `Cn1cc(-c2ccc3cnc(NC(=O)c4ccc5c(cnn5C)c4)cc3c2)cn1`, the EC50 was 3 nM in [1], 49 nM in [2] and 3000 nM in test [3]. Further, the Imax in [4] was determined as 46.9%.

Regarding `O=C(Nc1ccc(N2CCC(F)(F)C2)nc1)c1n[nH]cc1C#Cc1cccnc1`, the EC50 is more than 10000 nM in [5]; 21 nM in [6]; 32 nM in test [1]; more than 10000 nM in [2]; 3000 nM in test [3]. Further, the Imax in test [4] is 88.5%.

On to `Fc1cccc(-c2ccnc3[nH]c(-c4n[nH]c5ccc(-c6cncc(CN7CCC(F)(F)C7)c6)cc45)nc23)c1`, for which, in test [9], the Emax at 0.03 µM is 85.8%. The EC50 in test [5] amounted to 19.1 nM; in [6], 80 nM; in test [1], 21 nM; in test [2] it was 90 nM; in [8] it was 10 nM.

Consider `CCC(=O)Nc1cncc(-c2ccc3[nH]nc(-c4cc5c(N6CCCCC6)nccc5[nH]4)c3c2)c1`, for which the Emax at 0.03 µM in test [9] amounted to 244%. The EC50 in [5] worked out at 445 nM; in test [6], 5 nM; in test [1], 1 nM; in test [2], 52 nM; in [8], 10 nM.

In the case of `O=C(N[C@H]1C[C@@H]1c1ccccc1)c1n[nH]c2ccc(-c3cncc(CN4CCCCC4)c3)cc12`, the EC50 in [5] stood at 1030 nM; in test [6] it was 1 nM; in [1], 8 nM; in [2], 717 nM; in test [3], 4 nM.

Turning to `C[C@@H]1CN(c2ccc(NC(=O)c3n[nH]c4ccc(-c5cncc(CN6CCCCC6)c5)cc34)cn2)C[C@H](C)O1`, the half-maximal effective concentration (EC50) in test [5] amounted to 2.8 nM; in test [8], 2700 nM. The Emax at 2.7 µM in test [13] turned out to be 129%.

In the case of `O=C(N[C@H]1C[C@@H]1c1ccccc1)c1n[nH]c2ccc(-c3cccnc3)cc12`, the EC50 was 1390 nM in [5]; 4 nM in [6]; 10 nM in [1]; 6150 nM in test [2]; 1.6 nM in [3].

On to `CN(C)CCNc1cc(F)cc(-c2cccc3[nH]c(-c4n[nH]c5ccc(-c6cncc(CN7CCCCC7)c6)nc45)cc23)c1`, for which the Emax at 0.03 µM in test [9] turned out to be 48.5%. The half-maximal effective concentration (EC50) in test [5] turned out to be 1270 nM; in test [6], 40 nM; in [1], 4 nM; in test [2], 49 nM.

For the compound `Cc1n[nH]c2ccc(-c3cncc(N[C@H](CO)Cc4cccc(C(F)(F)F)c4)n3)cc12`, the EC50 in test [5] came to 809 nM; in [6], 45 nM; in [1], 37 nM; in test [2], 3950 nM; in [3], 3000 nM.

Turning to `CN(C)CCNc1cc(F)cc(-c2cccc3[nH]c(-c4n[nH]c5cnc(-c6cncc(NC(=O)C(C)(C)C)c6)cc45)cc23)c1`, the Emax at 0.03 µM in test [9] stood at 87.3%. Besides, the EC50 in test [5] worked out at 386 nM; in test [6], 45 nM; in test [1], 6 nM; in test [2], 49 nM; in test [8], 10 nM.

In the case of `Cc1nnc(-c2ccc3cnc(NC(=O)c4ccnc(C5=CCN(C)CC5)c4)cc3c2)s1`, the EC50 came out at 2 nM in test [1], 14 nM in test [2] and 143 nM in test [3]. In addition, in test [4], the Imax was 35.3%.

For orientation: EC50 means the concentration giving half of the maximal effect. The term Emax denotes the greatest response seen or fitted, relative to the assay's reference.

Values taken from ChEMBL document CHEMBL4739717, “Methods of treating cartilage disorders through inhibition of clk and dyrk” (2020).
